Data as given in paper PMC5513037, “Examining the influence of specificity ligands and ATP-competitive ligands on the overall effectiveness of bivalent kinase inhibitors” (Proteome Science, 2017).
pIC50: −log10 of the molar value.

Legend:
TTN = biological target: T1, TTN (Homo sapiens, UniProt Q8WZ42); test: Imatinib-matrix competition in K562 lysate; assay type: binding; conditions: read-out: RB50 (the source's name)
T1 construct: endogenous in cells; host or cells: K562
Text: (§1) Data were visualized for further analysis using Spotfire DXP.

TRIM33 = biological target: T2, TRIM33 (Homo sapiens, UniProt Q9UPN9); test: Imatinib-matrix competition in K562 lysate; assay type: binding; conditions: read-out: RB50 (the source's name)
T2 construct: endogenous in cells; host or cells: K562
Text: as §1

TKT = biological target: T3, TKT (Homo sapiens, UniProt P29401); test: Imatinib-matrix competition in K562 lysate; assay type: binding; conditions: read-out: RB50 (the source's name)
T3 construct: endogenous in cells; host or cells: K562
Text: as §1

TRIM28 = biological target: T4, TRIM28 (Homo sapiens, UniProt Q13263); test: Imatinib-matrix competition in K562 lysate; assay type: binding; conditions: read-out: RB50 (the source's name)
T4 construct: endogenous in cells; host or cells: K562
Text: as §1

NRK = biological target: T5, NRK (Homo sapiens, UniProt Q7Z2Y5); test: Imatinib-matrix competition in K562 lysate; assay type: binding; conditions: read-out: RB50 (the source's name)
T5 construct: endogenous in cells; host or cells: K562
Text: as §1

ATR = biological target: T6, ATR (Homo sapiens, UniProt Q13535); test: Imatinib-matrix competition in K562 lysate; assay type: binding; conditions: read-out: RB50 (the source's name)
T6 construct: endogenous in cells; host or cells: K562
Text: as §1

SRM = biological target: T7, SRM (Homo sapiens, UniProt P19623); test: Imatinib-matrix competition in K562 lysate; assay type: binding; conditions: read-out: RB50 (the source's name)
T7 construct: K562 lysate (5 mg per treatment) was preincubated; endogenous in cells; host or cells: K562 lysate
T7 sequence (P19623 whole entry): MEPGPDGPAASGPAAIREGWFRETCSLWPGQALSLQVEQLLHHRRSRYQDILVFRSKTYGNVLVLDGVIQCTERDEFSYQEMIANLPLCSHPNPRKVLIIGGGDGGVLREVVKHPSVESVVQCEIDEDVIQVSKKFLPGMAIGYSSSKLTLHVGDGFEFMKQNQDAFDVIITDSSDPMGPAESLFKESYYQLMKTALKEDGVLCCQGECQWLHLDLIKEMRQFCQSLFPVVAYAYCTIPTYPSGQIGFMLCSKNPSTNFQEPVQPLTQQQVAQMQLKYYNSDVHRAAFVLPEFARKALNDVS
Text: as §1

TFG = biological target: T8, TFG (Homo sapiens, UniProt Q92734); test: Imatinib-matrix competition in K562 lysate; assay type: binding; conditions: read-out: RB50 (the source's name)
T8 construct: endogenous in cells; host or cells: K562
Text: as §1

BRD4 = biological target: T9, BRD4 (Homo sapiens, UniProt O60885); test: Imatinib-matrix competition in K562 lysate; assay type: binding; conditions: read-out: RB50 (the source's name)
T9 construct: endogenous in cells; host or cells: K562
Text: as §1

RPS6KB2 = biological target: T10, RPS6KB2 (Homo sapiens, UniProt Q9UBS0); test: Imatinib-matrix competition in K562 lysate; assay type: binding; conditions: read-out: RB50 (the source's name)
T10 construct: endogenous in cells; host or cells: K562
T10 sequence (Q9UBS0 whole entry): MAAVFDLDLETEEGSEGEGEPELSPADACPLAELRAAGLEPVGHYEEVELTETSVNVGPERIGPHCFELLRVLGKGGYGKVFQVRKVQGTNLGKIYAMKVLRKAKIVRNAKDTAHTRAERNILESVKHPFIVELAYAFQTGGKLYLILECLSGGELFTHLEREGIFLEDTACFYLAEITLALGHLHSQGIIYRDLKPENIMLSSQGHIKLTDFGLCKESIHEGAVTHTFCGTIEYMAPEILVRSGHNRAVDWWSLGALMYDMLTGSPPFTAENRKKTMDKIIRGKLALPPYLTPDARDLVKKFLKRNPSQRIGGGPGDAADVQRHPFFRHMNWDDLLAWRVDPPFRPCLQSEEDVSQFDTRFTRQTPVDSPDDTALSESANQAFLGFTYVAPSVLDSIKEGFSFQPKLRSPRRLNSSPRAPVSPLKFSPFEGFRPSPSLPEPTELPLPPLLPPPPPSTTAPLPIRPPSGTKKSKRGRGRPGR
Text: as §1

SMG1 = biological target: T11, SMG1 (Homo sapiens, UniProt Q96Q15); test: Imatinib-matrix competition in K562 lysate; assay type: binding; conditions: read-out: RB50 (the source's name)
T11 construct: endogenous in cells; host or cells: K562
Text: as §1

SCYL1 [1] = biological target: T12, SCYL1 (Homo sapiens, UniProt Q96KG9); test: biochemical
T12 sequence (Q96KG9 1-808): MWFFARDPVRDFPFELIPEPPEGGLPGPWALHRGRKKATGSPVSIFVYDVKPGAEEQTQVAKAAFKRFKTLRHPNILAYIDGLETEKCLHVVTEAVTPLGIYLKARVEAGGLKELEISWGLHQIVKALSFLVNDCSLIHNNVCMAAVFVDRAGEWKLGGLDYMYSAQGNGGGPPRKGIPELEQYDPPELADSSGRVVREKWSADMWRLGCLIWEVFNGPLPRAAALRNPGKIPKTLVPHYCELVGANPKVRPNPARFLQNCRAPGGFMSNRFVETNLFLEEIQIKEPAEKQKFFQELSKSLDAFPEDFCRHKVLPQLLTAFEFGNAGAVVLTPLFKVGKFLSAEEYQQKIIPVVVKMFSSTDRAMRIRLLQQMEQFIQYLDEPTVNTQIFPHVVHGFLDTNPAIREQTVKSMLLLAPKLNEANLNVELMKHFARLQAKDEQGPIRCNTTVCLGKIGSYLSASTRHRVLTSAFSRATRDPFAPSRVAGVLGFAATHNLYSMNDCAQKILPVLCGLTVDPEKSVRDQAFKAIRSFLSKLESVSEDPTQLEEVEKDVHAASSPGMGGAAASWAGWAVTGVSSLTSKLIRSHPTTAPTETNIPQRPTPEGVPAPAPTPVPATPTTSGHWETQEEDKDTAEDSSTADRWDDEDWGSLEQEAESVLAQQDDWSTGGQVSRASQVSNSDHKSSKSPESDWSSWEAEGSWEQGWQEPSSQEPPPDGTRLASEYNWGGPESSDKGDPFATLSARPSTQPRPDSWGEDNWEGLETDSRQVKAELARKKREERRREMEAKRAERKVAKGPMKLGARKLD

MAP3K11 = biological target: T13, MAP3K11 (Homo sapiens, UniProt Q16584); test: KAM-matrix competition in K562 lysate; assay type: binding; conditions: relative to 0 uM KAM = 0;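 note: median log10 fold change of treatment over DMSO control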
T13 construct: endogenous in cells; host or cells: K562
T13 sequence (Q16584 whole entry): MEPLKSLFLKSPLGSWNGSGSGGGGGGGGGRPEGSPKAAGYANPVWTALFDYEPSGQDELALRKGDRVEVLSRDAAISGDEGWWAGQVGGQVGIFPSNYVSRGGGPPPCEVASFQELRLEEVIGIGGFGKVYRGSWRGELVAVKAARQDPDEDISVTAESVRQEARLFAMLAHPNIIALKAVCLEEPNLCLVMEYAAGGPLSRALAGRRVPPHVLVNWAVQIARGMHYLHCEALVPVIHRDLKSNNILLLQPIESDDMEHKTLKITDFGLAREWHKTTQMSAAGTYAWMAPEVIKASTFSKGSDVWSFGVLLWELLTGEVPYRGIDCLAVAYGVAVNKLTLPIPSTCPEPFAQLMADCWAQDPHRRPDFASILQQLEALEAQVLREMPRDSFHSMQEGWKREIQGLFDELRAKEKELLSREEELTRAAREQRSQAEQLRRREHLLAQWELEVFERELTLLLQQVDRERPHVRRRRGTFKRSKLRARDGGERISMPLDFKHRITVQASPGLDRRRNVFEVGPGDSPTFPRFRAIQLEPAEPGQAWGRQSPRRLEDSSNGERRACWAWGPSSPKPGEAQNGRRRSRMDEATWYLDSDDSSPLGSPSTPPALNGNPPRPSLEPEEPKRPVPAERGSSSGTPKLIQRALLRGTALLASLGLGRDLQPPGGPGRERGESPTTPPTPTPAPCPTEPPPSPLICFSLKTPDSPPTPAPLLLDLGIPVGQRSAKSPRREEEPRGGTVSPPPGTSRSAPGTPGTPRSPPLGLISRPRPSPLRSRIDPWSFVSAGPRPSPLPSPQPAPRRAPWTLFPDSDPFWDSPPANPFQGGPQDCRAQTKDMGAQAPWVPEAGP
Method: (§2) Supplement 12953_2017_125_MOESM1_ESM.zip/MS_Supp Info.xlsx, sheet "KAM" | column: 10 uM KAM; 1 uM KAM; 0.1 uM KAM; 0.001 uM KAM

CDK6 = biological target: T14, CDK6 (Homo sapiens, UniProt Q00534); test: KAM-matrix competition in K562 lysate; assay type: binding; conditions: relative to 0 uM KAM = 0;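 note: median log10 fold change of treatment over DMSO control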
T14 construct: endogenous in cells; host or cells: K562
T14 sequence (Q00534 whole entry): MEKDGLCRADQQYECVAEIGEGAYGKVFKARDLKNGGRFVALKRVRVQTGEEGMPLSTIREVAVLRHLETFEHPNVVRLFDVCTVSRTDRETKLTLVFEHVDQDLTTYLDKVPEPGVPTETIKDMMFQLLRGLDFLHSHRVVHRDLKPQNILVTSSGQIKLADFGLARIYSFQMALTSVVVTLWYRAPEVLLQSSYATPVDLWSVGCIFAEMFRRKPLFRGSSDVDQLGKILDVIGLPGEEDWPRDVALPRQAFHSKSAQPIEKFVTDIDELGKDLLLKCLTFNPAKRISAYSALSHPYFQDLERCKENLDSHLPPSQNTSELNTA
Method: as §2

ABL1 = test: KAM-matrix competition in K562 lysate; assay type: binding, human
Method: For synthesis of KAM-derivatized resin, packed NHS-activated sepharose 4 fast flow resin (volume = 2 mL; GE Healthcare) was washed with anhydrous DMSO (3 × 10 mL). To the washed NHS-activated sepharose resin was added 0.5 mM KAM in anhydrous DMSO (8 mL; 2 μmol compound/mL of resin), followed by the addition of triethylamine (30 μL). The reaction mixture was vortexed to mix and pelleted by centrifugation (100 x g, 2 min). An aliquot of the supernatant (50 μL) was saved for LC/MS analysis. The reaction mixture was allowed incubate overnight at room temp with end-over-end rotating agitation. On the following day, the reaction mixture was pelleted by centrifugation (100 x g, 2 min). An aliquot of the supernatant (50 μL) was saved for LC/MS analysis. […] 2-(2-Aminoethoxy)ethanol (100 μL; Sigma-Aldrich) was added to the reaction mixture, vortexed, and incubate overnight at room temp with end-over-end agitation. The KAM-derivatized resin was then washed with anhydrous DMSO (3 × 10 mL) and 95% EtOH (3 × 10 mL).
as §1

SCYL1 [2] = biological target: T12, SCYL1; test: KAM-matrix competition in K562 lysate; assay type: binding; design: endogenous in cells; host or cells: K562;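 for 0.001 uM KAM: median log10 fold change of treatment over DMSO control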;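 for 0.01 uM KAM: median log10 fold change of treatment over DMSO control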;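 for 0.1 uM KAM: median log10 fold change of treatment over DMSO control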;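 for 1 uM KAM: median log10 fold change of treatment over DMSO control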;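 for 10 uM KAM: median log10 fold change of treatment over DMSO control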
Method: (§3) Supplement 12953_2017_125_MOESM1_ESM.zip/MS_Supp Info.xlsx, sheet "KAM" | column: 10 uM KAM; 1 uM KAM; 0.1 uM KAM; 0.01 uM KAM; 0.001 uM KAM; RB50

ATM = ATM (Homo sapiens, UniProt Q13315); test: KAM-matrix competition in K562 lysate; assay type: binding; design: endogenous in cells; host or cells: K562;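 for 0.001 uM KAM: median log10 fold change of treatment over DMSO control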;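 for 0.01 uM KAM: median log10 fold change of treatment over DMSO control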;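 for 0.1 uM KAM: median log10 fold change of treatment over DMSO control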;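 for 1 uM KAM: median log10 fold change of treatment over DMSO control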;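 for 10 uM KAM: median log10 fold change of treatment over DMSO control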
ATM, sequence (Q13315 whole entry): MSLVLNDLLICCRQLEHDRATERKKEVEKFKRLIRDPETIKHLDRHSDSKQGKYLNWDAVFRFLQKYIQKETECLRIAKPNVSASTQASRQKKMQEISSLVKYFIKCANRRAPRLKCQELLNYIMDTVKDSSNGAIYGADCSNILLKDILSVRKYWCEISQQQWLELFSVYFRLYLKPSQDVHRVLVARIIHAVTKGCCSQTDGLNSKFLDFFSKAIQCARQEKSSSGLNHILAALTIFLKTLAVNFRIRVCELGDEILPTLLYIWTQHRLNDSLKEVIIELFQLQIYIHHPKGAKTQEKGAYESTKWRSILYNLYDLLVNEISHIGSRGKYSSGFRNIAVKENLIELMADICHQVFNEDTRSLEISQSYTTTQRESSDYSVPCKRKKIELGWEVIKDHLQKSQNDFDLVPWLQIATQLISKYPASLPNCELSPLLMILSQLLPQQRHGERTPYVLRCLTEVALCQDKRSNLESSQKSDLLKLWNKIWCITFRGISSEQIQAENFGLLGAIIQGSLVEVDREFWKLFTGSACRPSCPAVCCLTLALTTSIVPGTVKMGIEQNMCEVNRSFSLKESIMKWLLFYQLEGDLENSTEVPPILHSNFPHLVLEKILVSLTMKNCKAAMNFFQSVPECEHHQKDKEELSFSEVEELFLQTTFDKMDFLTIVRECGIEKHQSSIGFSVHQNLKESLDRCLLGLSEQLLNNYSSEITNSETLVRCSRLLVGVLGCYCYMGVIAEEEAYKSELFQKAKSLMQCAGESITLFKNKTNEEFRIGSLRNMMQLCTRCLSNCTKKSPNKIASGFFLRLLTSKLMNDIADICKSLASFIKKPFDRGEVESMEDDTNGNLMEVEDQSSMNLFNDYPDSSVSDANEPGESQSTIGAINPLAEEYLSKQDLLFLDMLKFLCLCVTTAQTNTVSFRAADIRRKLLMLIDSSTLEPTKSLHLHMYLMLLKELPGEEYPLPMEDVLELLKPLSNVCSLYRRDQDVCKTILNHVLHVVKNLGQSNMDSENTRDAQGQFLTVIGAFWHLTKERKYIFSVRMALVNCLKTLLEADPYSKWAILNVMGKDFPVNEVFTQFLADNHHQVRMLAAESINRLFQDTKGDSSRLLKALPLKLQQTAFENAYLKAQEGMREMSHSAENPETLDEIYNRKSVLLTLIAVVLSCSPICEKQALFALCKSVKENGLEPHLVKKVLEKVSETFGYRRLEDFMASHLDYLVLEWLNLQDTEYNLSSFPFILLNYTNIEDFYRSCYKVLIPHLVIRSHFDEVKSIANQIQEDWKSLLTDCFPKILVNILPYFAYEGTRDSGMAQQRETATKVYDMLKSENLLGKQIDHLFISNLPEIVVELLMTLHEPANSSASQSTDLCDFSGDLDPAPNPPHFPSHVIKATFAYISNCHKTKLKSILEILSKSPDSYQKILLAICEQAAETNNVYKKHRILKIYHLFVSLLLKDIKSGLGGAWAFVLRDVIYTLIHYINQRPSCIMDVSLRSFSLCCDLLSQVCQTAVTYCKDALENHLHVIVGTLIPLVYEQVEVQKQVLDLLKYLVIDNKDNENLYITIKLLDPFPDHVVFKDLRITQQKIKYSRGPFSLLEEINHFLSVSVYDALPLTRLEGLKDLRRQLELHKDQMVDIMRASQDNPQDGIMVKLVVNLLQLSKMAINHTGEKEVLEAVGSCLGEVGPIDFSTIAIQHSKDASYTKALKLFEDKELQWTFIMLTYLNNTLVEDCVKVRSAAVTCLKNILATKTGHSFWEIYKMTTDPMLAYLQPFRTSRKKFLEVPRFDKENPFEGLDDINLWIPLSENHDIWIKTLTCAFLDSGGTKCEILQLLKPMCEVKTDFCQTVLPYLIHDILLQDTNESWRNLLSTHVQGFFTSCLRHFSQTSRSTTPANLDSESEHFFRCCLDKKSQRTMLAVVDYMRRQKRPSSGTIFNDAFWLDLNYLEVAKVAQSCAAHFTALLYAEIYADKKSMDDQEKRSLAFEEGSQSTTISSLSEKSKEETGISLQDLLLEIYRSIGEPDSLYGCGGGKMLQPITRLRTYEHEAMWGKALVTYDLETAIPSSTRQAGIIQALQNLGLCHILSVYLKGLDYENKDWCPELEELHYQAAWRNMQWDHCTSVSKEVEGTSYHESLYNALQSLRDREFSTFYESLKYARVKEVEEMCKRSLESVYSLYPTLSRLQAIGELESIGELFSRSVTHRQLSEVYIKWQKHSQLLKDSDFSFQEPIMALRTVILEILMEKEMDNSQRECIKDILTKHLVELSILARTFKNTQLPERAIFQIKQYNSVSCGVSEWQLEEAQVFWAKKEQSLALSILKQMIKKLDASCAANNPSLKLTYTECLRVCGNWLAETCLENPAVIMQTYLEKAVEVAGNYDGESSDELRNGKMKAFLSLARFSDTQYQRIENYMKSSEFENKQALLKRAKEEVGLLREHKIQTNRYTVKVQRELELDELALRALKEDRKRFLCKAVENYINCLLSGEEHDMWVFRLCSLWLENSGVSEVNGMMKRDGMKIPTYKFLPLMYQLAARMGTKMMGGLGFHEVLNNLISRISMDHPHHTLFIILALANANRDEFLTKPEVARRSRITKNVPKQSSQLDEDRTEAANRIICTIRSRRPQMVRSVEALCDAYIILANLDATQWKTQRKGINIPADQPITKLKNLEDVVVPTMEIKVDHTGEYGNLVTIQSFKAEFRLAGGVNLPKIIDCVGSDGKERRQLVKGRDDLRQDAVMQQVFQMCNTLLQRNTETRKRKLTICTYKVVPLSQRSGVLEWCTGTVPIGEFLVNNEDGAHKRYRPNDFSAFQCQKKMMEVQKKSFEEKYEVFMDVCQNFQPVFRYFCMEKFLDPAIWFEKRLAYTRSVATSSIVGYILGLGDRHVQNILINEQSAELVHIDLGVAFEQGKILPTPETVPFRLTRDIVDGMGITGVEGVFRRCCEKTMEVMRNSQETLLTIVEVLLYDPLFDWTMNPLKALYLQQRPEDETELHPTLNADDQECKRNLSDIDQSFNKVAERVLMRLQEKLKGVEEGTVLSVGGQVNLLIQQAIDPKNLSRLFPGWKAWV
Method: as §3

[3] = KAM 0.001-10 uM, read-out: RB50 (the source's name)

Cc1ccc(NC(=O)c2ccc(CN3CCN(C)CC3)cc2)cc1Nc1nccc(-c2cccnc2)n1 [Imatinib]
pIC50 (TTN): < 5.00 | pIC50 (TRIM33): < 5.00 | pIC50 (TKT): < 5.00 | pIC50 (TRIM28): < 5.00 | pIC50 (NRK): < 5.00 | pIC50 (ATR): < 5.00 | pIC50 (SRM): < 5.00 | pIC50 (TFG): < 5.00 | pIC50 (BRD4): < 5.00 | pIC50 (RPS6KB2): < 5.00 | pIC50 (SMG1): < 5.00 | pIC50 (SCYL1 [1]): < 5.00

N#CCc1ccc(Nc2nc(NCCCN)cc(Nc3cc(C4CC4)[nH]n3)n2)cc1 [KAM]
0.001 uM KAM (MAP3K11): -0.02883 | 0.1 uM KAM (MAP3K11): -0.2112 | 1 uM KAM (MAP3K11): -0.4525 | 10 uM KAM (MAP3K11): -0.59 | 0.001 uM KAM (CDK6): 0.01418 | 0.1 uM KAM (CDK6): -0.05531 | 1 uM KAM (CDK6): -0.08871 | 10 uM KAM (CDK6): -0.05328 | median Log10 fold change (ABL1; 0.001 uM KAM): -0.005017 | median Log10 fold change (ABL1; 0.01 uM KAM): -0.004253 | median Log10 fold change (ABL1; 0.1 uM KAM): -0.1612 | median Log10 fold change (ABL1; 1 uM KAM): -0.353 | median Log10 fold change (ABL1; 10 uM KAM): -0.4826 | pIC50 (ABL1; ABL1, KAM-based affinity matrix, K562 lysates, read-out: RB50 (the source's name)): 6.12 | pIC50 (SCYL1 [2]; [3]): < 5.00 | 0.001 uM KAM (SCYL1 [2]; relative to 0 uM KAM = 0): 0.01527 | 0.01 uM KAM (SCYL1 [2]; relative to 0 uM KAM = 0): 0.01732 | 0.1 uM KAM (SCYL1 [2]; relative to 0 uM KAM = 0): 0.09163 | 1 uM KAM (SCYL1 [2]; relative to 0 uM KAM = 0): 0.1255 | 10 uM KAM (SCYL1 [2]; relative to 0 uM KAM = 0): 0.1065 | pIC50 (ATM; [3]): < 5.00 | 0.001 uM KAM (ATM; relative to 0 uM KAM = 0): -0.06745 | 0.01 uM KAM (ATM; relative to 0 uM KAM = 0): -0.02165 | 0.1 uM KAM (ATM; relative to 0 uM KAM = 0): -0.03764 | 1 uM KAM (ATM; relative to 0 uM KAM = 0): -0.07001 | 10 uM KAM (ATM; relative to 0 uM KAM = 0): 0.01755
